# Test results as given in patent publication US8481600B2, “Formulation of aspirin that is stable and showing minimal hydrolysis for parenteral administration for the treatment of cardiovascular and other disease states” (Academic Pharmaceuticals, Inc., priority 2007, dated 2013).
# Assay: Dissolution of ASA in buffers and solvent systems (clear solution or suspension)
# Assay type: physicochemical
# Conditions: for Dissolution of aspirin in buffer: aspirin 10 to 50 mg/ml in 10 ml; for Dissolution of aspirin in solvent system: aspirin up to 75 mg/ml
# Method: Parenteral solutions comprising aspirin in buffers are typically prepared by mixing the required amount of aspirin in the buffer. The process is preferably carried out at room temperature, although other temperatures are acceptable for these preparations.
# ASA (aspirin) was attempted to be dissolved in a number of solvent systems and then stability was determined if these solutions provided clear, colorless dissolution of ASA. In the following buffers aspirin was found riot to be soluble. These buffers are listed below: • 1.
# In another series of experiments, dissolution of aspirin in solvents that are listed below were attempted to provide parenteral solutions suitable for intravenous administration comprising an effective amount of aspirin. […] The pH of the solutions ranged from 1.5 to 6.8. Ph adjustments were made using 1N NaOH solution. • 1. To water (2.0 ml), 1-propanol (0.5 ml) and Tween 20 (0.5 ml) was added to aspirin at a concentration level of up to 75 mg/ml. […] To water (2.0 ml), 1-propanol (0.5 ml) and Tween 40 (0.5 ml) was added to aspirin at a concentration level of up to 75 mg/ml. […] To water (2.0 ml), 1-propanol (0.5 ml) and Tween 60 (0.5 ml) was added to aspirin at a concentration level of up to 75 mg/ml. […] To water (2.0 ml), 1-propanol (0.5 ml) and Tween 80 (0.5 ml) was added to aspirin at a concentration level of up to 75 mg/ml. […] To water (2.0 ml), 1-propanol (0.5 ml) and PEG 300 was added to aspirin at a concentration level of up to 75 mg/ml. […] To water (2.0 ml), 1-propanol (0.5 ml) and PEG 400 was added to aspirin at a concentration level of up to 75 mg/ml. […] To water (2.0 ml), 1-propanol (0.5 ml) and PEG 600 was added to aspirin at a concentration level of up to 75 mg/ml. […] To water (2.0 ml), 1-propanol (0.5 ml) and glycerol was added to aspirin at a concentration level of up to 75 mg/ml. […] To water (2.0 ml), DMSO (1-2%) and Tween 20 was added to aspirin at a concentration level of up to 75 mg/ml. […] To water (2.0 ml), DMSO (1-2%) and Tween 40 was added to aspirin at a concentration level of up to 75 mg/ml. […] To water (2.0 ml), DMSO (1-2%) and Tween 60 was added to aspirin at a concentration level of up to 75 mg/ml. […] To water (2.0 ml), DMSO (1-2%) and Tween 80 was added to aspirin at a concentration level of up to 75 mg/ml. […] To glycerine (1 ml), 1-propanol (3 ml) and Tween 80 (0.2 ml) was added to aspirin at a concentration level of up to 75 mg/ml. […] To glycerine (1 ml), 1,2-propanol and Tween 80 (0.2 ml) was added to aspirin at a concentration level, of up to 75 mg/ml. […] To glycerine (1 ml), PEG 300 and Tween 80 (0.2 ml) was added to aspirin at a concentration of up to 75 mg/ml. […] To glycerine (1 ml), PEG 400 and Tween 80 (0.2 ml) was added to aspirin at a concentration of up to 75 mg/ml. […] To glycerine (1 ml), PEG 600 and Tween 80 (0.2 ml) was added to aspirin at a concentration of up to 75 mg/ml.
# • 1. To N,N-Dimethylacetamide (NNDMA) (10 ml), aspirin was added at a concentration level of up to 500 mg/ml. […] To N,N-Dimethylacetamide (NNDMA) (10 ml) and ASA, glycerol (0.1 in 10 ml) added, Tween 20 (0.1 in 10 ml) were added. […] To N,N-Dimethylacetamide (NNDMA) (10 ml) and ASA, glycerol (0.1 in 10 ml), Tween 40 (0.1 in 10 ml) were added. […] To N,N-Dimethylacetamide (NNDMA) (10 ml) and ASA, glycerol (0.1 in 10 ml), Tween 60 (0.1 in 10 ml) were added. […] To N,N-Dimethylacetamide (NNDMA) (10 ml) and ASA, glycerol (0.1 in 10 ml), Tween 80 (0.1 in 10 ml) were added. […] To N,N-Dimethylacetamide (NNDMA) (10 ml) and ASA, glycerol (0.1 in 10 ml) were added. […] To N,N-Dimethylacetamide (NNDMA) (10 ml) and ASA, glycerol (0.1 in 10 ml), and DMSO (1-2%) were added. […] To N,N-Dimethylacetamide (NNDMA) (10 ml) and ASA, DMSO (1-2%) was added. […] The amount of aspirin present was greater than 98% at room temperature for 6 months. […]
compound,measurement,setting,value
"CC(=O)Oc1ccccc1C(=O)O [ASA, aspirin]","solubility in N,N-dimethylacetamide",,readily soluble
same,Dissolution of ASA in NNDMA and other diluents: appearance,"1. N,N-Dimethylacetamide (NNDMA) (10 ml), aspirin up to 500 mg/ml",Clear Purity
same,Dissolution of ASA in NNDMA and other diluents: appearance,"1. N,N-Dimethylacetamide (NNDMA) (10 ml), aspirin up to 500 mg/ml, listed as aspirin",clear solution
same,Dissolution of ASA in NNDMA and other diluents: appearance,"2. NNDMA (10 ml), Glycerol (0.1 in 10 ml), Tween 20 (0.1 in 10 ml)",clear solution
same,Dissolution of ASA in NNDMA and other diluents: appearance,"3. NNDMA (10 ml), Glycerol (0.1 in 10 ml), Tween 40 (0.1 in 10 ml)",clear solution
same,Dissolution of ASA in NNDMA and other diluents: appearance,"4. NNDMA (10 ml), Glycerol (0.1 in 10 ml), Tween 60 (0.1 in 10 ml)",clear solution
same,Dissolution of ASA in NNDMA and other diluents: appearance,"5. NNDMA (10 ml), Glycerol (0.1 in 10 ml), Tween 80 (0.1 in 10 ml)",clear solution
same,Dissolution of ASA in NNDMA and other diluents: appearance,"6. NNDMA (10 ml), Glycerol (0.1 in 10 ml)",clear solution
same,Dissolution of ASA in NNDMA and other diluents: appearance,"7. NNDMA (10 ml), Glycerol (0.1 in 10 ml), DMSO (1-2%)",clear solution
same,Dissolution of ASA in NNDMA and other diluents: appearance,"8. NNDMA (10 ml), DMSO (1.2%) (text: 1-2%)",clear solution
same,Dissolution of ASA in buffer,"AMPSO buffer 0.05 M, aspirin 10 to 50 mg/ml in 10 ml (″ = not soluble), listed as aspirin",suspension that was not clear
same,Dissolution of ASA in buffer,"AMPSO buffer 0.10 M, aspirin 10 to 50 mg/ml in 10 ml (″ = not soluble), listed as aspirin",suspension that was not clear
same,Dissolution of ASA in buffer,"Bicine buffer 0.10 M, aspirin 10 to 50 mg/ml in 10 ml (″ = not soluble), listed as aspirin",suspension that was not clear
same,Dissolution of ASA in buffer,"Bis Tris buffer 0.05 M, aspirin 10 mg/ml to 50 mg/ml in 10 ml",0.05 M not soluble
same,Dissolution of ASA in buffer,"Bis Tris buffer 0.05 M, aspirin 10 mg/ml to 50 mg/ml in 10 ml, listed as aspirin",suspension that was not clear
same,Dissolution of ASA in buffer,"Bis Tris buffer 0.10 M, aspirin 10 mg/ml to 50 mg/ml in 10 ml",0.10 M not soluble
same,Dissolution of ASA in buffer,"Bis Tris buffer 0.10 M, aspirin 10 mg/ml to 50 mg/ml in 10 ml, listed as aspirin",suspension that was not clear
same,Dissolution of ASA in buffer,"CAPS buffer 0.05 M, aspirin 10 to 50 mg/ml in 10 ml (″ = not soluble), listed as aspirin",suspension that was not clear
same,Dissolution of ASA in buffer,"CAPS buffer 0.10 M, aspirin 10 to 50 mg/ml in 10 ml (″ = not soluble), listed as aspirin",suspension that was not clear
same,Dissolution of ASA in buffer,"HEPES buffer 0.05 M, aspirin 10 to 50 mg/ml in 10 ml (″ = not soluble), listed as aspirin",suspension that was not clear
same,Dissolution of ASA in buffer,"HEPES buffer 0.10 M, aspirin 10 to 50 mg/ml in 10 ml (″ = not soluble), listed as aspirin",suspension that was not clear
same,solubility,"N,N-dimethylacetamide (NNDMA), organic solvent or mixture, thermodynamic from solid, read-out: concentration at which aspirin was found to be soluble in NNDMA",≤ 500 mg/mL
same,Dissolution of ASA in buffer,"Saline (normal) 0.10 M, aspirin 10 to 50 mg/ml in 10 ml (″ = not soluble), listed as aspirin",suspension that was not clear
same,Dissolution of ASA in buffer,"TAPS buffer 0.05 M, aspirin 10 to 50 mg/ml in 10 ml (″ = not soluble), listed as aspirin",suspension that was not clear
same,Dissolution of ASA in buffer,"TAPS buffer 0.10 M, aspirin 10 to 50 mg/ml in 10 ml (″ = not soluble), listed as aspirin",suspension that was not clear
same,Dissolution of ASA in buffer,"Tricine buffer 0.10 M, aspirin 10 to 50 mg/ml in 10 ml (″ = not soluble), listed as aspirin",suspension that was not clear
same,Dissolution of aspirin in buffer,"Tricine buffer (0.1M), list item 7",suspension that was not clear
same,Dissolution of aspirin in buffer,"bicine buffer (0.1M), list item 8",suspension that was not clear
same,Dissolution of aspirin in solvent system,"glycerine (1 ml), 1,2-propanol, Tween 80 (0.2 ml)",clear solution
same,Dissolution of aspirin in solvent system,"glycerine (1 ml), 1-propanol (3 ml), Tween 80 (0.2 ml)",clear solution
same,Dissolution of aspirin in solvent system,"glycerine (1 ml), PEG 300, Tween 80 (0.2 ml)",clear solution
same,Dissolution of aspirin in solvent system,"glycerine (1 ml), PEG 400, Tween 80 (0.2 ml)",clear solution
same,Dissolution of aspirin in solvent system,"glycerine (1 ml), PEG 600, Tween 80 (0.2 ml)",clear solution
same,Dissolution of aspirin in buffer,"sodium acetate (pH 6.5 and 3.8) buffer (0.1M), list item 6",suspension that was not clear
same,Dissolution of aspirin in buffer,"sodium acetate pH 6.5 and 3.8 buffer (0.1M), list item 15",suspension that was not clear
same,Dissolution of aspirin in solvent system,"water (2.0 ml), 1-propanol (0.5 ml), PEG 300",clear solution
same,Dissolution of aspirin in solvent system,"water (2.0 ml), 1-propanol (0.5 ml), PEG 400",clear solution
same,Dissolution of aspirin in solvent system,"water (2.0 ml), 1-propanol (0.5 ml), PEG 600",clear solution
same,Dissolution of aspirin in solvent system,"water (2.0 ml), 1-propanol (0.5 ml), Tween 20 (0.5 ml)",clear solution
same,Dissolution of aspirin in solvent system,"water (2.0 ml), 1-propanol (0.5 ml), Tween 40 (0.5 ml)",clear solution
same,Dissolution of aspirin in solvent system,"water (2.0 ml), 1-propanol (0.5 ml), Tween 60 (0.5 ml)",clear solution
same,Dissolution of aspirin in solvent system,"water (2.0 ml), 1-propanol (0.5 ml), Tween 80 (0.5 ml)",clear solution
same,Dissolution of aspirin in solvent system,"water (2.0 ml), 1-propanol (0.5 ml), glycerol",clear solution
same,Dissolution of aspirin in solvent system,"water (2.0 ml), DMSO (1-2%), Tween 20",clear solution
same,Dissolution of aspirin in solvent system,"water (2.0 ml), DMSO (1-2%), Tween 40",clear solution
same,Dissolution of aspirin in solvent system,"water (2.0 ml), DMSO (1-2%), Tween 60",clear solution
same,Dissolution of aspirin in solvent system,"water (2.0 ml), DMSO (1-2%), Tween 80",clear solution
